Experimental findings from ChEMBL document CHEMBL1201862, “PubChem BioAssay data set” (2004) are described below.

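Five concentrations, 48 hours, 96-well plates. Abbreviation: GI50, concentration required for 50% inhibition of growth.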 Activity calls are given as the source filed them. Rule as the data show it: active = GI50 up to about 1.1 µM and inactive = higher.

Test systems include EKVX; NCI-H522; SN12C; RPMI-8226; SF-295; HL-60; SK-MEL-5; A549; COLO 205; 786-0; OVCAR-8; SF-268; SNB-19; UACC-62; HCT-15; TK-10; HOP-92.
Common to all, as to assay: NCI tumour cell line growth inhibition, 48 h

Regarding `N#Cc1ccc(C2OCC3CC=CCC3CO2)cc1` (stereo unspecified), the GI50 with EKVX was 31.2 µM (inactive); with NCI-H522, 18.9 µM (inactive); in the assay with SN12C it was > 100 µM (inactive); with RPMI-8226, 42.2 µM (inactive); in the assay with SF-295 it was 48.1 µM (inactive); in the assay with HL-60 it was 30.7 µM (inactive). The GI50 was 21.1 µM (inactive) in the assay with SK-MEL-5; 70 µM (inactive) in the assay with A549; 80.9 µM (inactive) in the assay with COLO 205; > 100 µM (inactive) with 786-0; 83.4 µM (inactive) in the assay with OVCAR-8; > 100 µM (inactive) in the assay with SF-268. The figures for the GI50 in the assay on SNB-19, in the assay with UACC-62 and with HCT-15 were > 100 µM (inactive), 80.7 µM (inactive) and 61.2 µM, respectively.
As to `C[P+]1(Cc2ccccc2)CCCC1`, the GI50 in the assay on EKVX, in the assay on NCI-H522, in the assay on SN12C, in the assay on RPMI-8226, with SF-295 and with HL-60 was > 100 µM (inactive) throughout. Further, the GI50 in the assay on SK-MEL-5, in the assay with A549, in the assay with COLO 205, in the assay with 786-0, in the assay with OVCAR-8 and with SNB-19 was > 100 µM (inactive) each time. Besides, the GI50 in the assay with UACC-62 is > 100 µM (inactive); in the assay with HCT-15, over 100 µM; in the assay with TK-10, > 100 µM (inactive).
With `C[P+](C)(C)C`, the GI50 with EKVX, with HOP-92, with SN12C, with RPMI-8226, with SF-295 and with HL-60 was > 100 µM (inactive) in each case. The GI50 with SK-MEL-5, in the assay on A549, in the assay with COLO 205, in the assay with 786-0, in the assay with OVCAR-8 and in the assay with SF-268 was > 100 µM (inactive) throughout. Further, the GI50 with SNB-19 was > 100 µM (inactive); in the assay with UACC-62, > 100 µM (inactive); in the assay with HCT-15 it was over 100 µM; with TK-10, > 100 µM (inactive).
With `NC(=S)N/N=C(/CC(=O)c1ccc([N+](=O)[O-])cc1)C(=O)Nc1ncc([N+](=O)[O-])s1`, the GI50 was > 100 µM (inactive) in the assay on EKVX; > 100 µM (inactive) with HOP-92; > 100 µM (inactive) with SN12C; > 100 µM (inactive) with RPMI-8226; > 100 µM (inactive) in the assay on SF-295; 45.2 µM (inactive) in the assay on HL-60. For the same molecule, the GI50 in the assay with SK-MEL-5, in the assay on A549, in the assay on COLO 205, with 786-0, in the assay on OVCAR-8 and in the assay with SF-268 was > 100 µM (inactive) each time. Further, the GI50 with SNB-19 was > 100 µM (inactive); in the assay with UACC-62, 52.7 µM (inactive); in the assay with TK-10 it was > 100 µM (inactive).
On to `CC(C(=O)c1ccc(Cl)cc1)/C(=N/NC(=O)NN)C(=O)Nc1cccc(C(F)(F)F)c1` (stereo unspecified), for which the GI50 in the assay with EKVX, in the assay with SN12C, in the assay with RPMI-8226, in the assay with SF-295, in the assay on HL-60 and in the assay on SK-MEL-5 was > 100 µM (inactive) in each case. The GI50 with A549, in the assay on COLO 205, in the assay on 786-0, in the assay with OVCAR-8, in the assay on SF-268 and in the assay on SNB-19 was > 100 µM (inactive) each time. For the same molecule, the GI50 is > 100 µM (inactive) with UACC-62, over 100 µM in the assay with HCT-15 and > 100 µM (inactive) with TK-10.
